Patent publication US20230091047A1 (priority 2019, published 2023)
Read-outs that look alike come from different tables or passages of the source.

How the values were obtained:
[1] = system: HBV (HepG2.117 cell line, inducibly HBV producing); assay: Anti-HBV activity: intracellular HBV DNA by real-time PCR in HepG2.117 cells after 3 days of treatment; format: cell-based, hepatitis B virus
Method in brief: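 Readout is intracellular HBV DNA, measured by real-time PCR with HBV-specific primers and probe after 3 days of exposure to serial compound dilutions. Cells are the stable HepG2.117 line, where HBV replication is induced in the absence of doxycycline.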

in vitro = format: cell-based; conditions: human, HepG2 or HepG2.117 cells, ATPlite, mean value
Method in brief: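 Luminescent ATP quantitation served as the viability endpoint following a 3- or 4-day incubation with test compounds.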

[2] = Hepatitis B virus, HepG2.117, 72 h, HepG2.117 cells, intracellular HBV DNA by real-time PCR, 3 days of treatment, mean value; read-out: EC50 (μM, mean value)
[3] = 3-days incubation (not marked with *)
[4] = Hepatitis B virus, HepG2.117, 72 h, HepG2.117 cells, 3 days of treatment, intracellular HBV DNA by real-time PCR; mean value; read-out: EC50 (μM, mean value)
[5] = 3-days incubation (unmarked values)

Molecule `CNC(=O)c1ccc(-n2c(NC(C)C)nc3c(c2=O)C[C@@H](C)N(C(=O)c2ccc(Br)c4c2OCCC4)C3)cc1` [Compound C588] has an EC50 [1, 2] of 1.61 µM and a CC50 at 3 days (in vitro; [3]) of over 50 µM.
With `CNC(=O)c1ccc(-n2c(NCc3ccc(-n4cncn4)cc3)nc3c(c2=O)C[C@@H](C)N(C(=O)c2ccc(Cl)c(Cl)c2)C3)cc1` [Compound C555] the EC50 [1, 2] was 1.33 µM and the CC50 at 3 days (in vitro; [3]) was over 50 µM.
In the case of `CNC(=O)c1cc(-n2c(N[C@@H](C)c3ccc(OC(F)(F)F)cc3)nc3c(c2=O)C[C@@H](C)N(C(=O)c2ccc(Cl)c(Cl)c2)C3)nn1C` [Compound C622], the EC50 [1, 2] is reported as 0.07 µM and the CC50 at 3 days (in vitro; [3]) is reported as over 50 µM.
With `CNC(=O)c1ccc(-n2c(NC(C)C)nc3c(c2=O)C[C@@H](C)N(C(=O)c2ccc(Cl)c(C(F)F)c2)C3)cc1` [Compound C427] the EC50 [1, 2] was 0.05 µM and the CC50 at 3 days (in vitro; [3]) was over 50 µM.
Work on `CC(C)Nc1nc2c(c(=O)n1-c1ccc(-c3ncccn3)cc1)C[C@@H](C)N(C(=O)c1ccc(Cl)c(Cl)c1)C2` [Compound C237, (6R)-7-(3,4-dichlorobenzoyl)-6-methyl-2-[(propan-2-yl)amino]-3-[4-(pyrimidin-2-yl)phenyl]-5,6,7,8-tetrahydropyrido[3,4-d]pyrimidin-4(3H)-one] yielded an EC50 [1, 4] of 0.23 µM and a CC50 at 3 days (in vitro; [5]) of over 50 µM.
In the case of `CNC(=O)c1ccc(-n2c(N3CCOCC(C)C3)nc3c(c2=O)C[C@@H](C)N(C(=O)c2ccc(Cl)c(Cl)c2)C3)cc1` (stereo partly drawn) [Compound C518], the EC50 [1, 2] is reported as 0.47 µM and the CC50 at 3 days (in vitro; [3]) is reported as over 50 µM.
For `CNC(=O)c1ncc(-n2c(NC(C)C)nc3c(c2=O)C[C@@H](C)N(C(=O)c2ccc(Cl)c(Cl)c2)C3)n1C` [Compound C419], the EC50 [1, 2] was 0.19 µM and the CC50 at 3 days (in vitro; [3]) was over 50 µM.
For `CNc1noc2cc(-n3c(N[C@@H](C)c4ccc(OC(F)(F)F)cc4)nc4c(c3=O)C[C@@H](C)N(C(=O)c3ccc(Cl)c(Cl)c3)C4)ccc12` [Compound C616], the EC50 [1, 2] was 0.19 µM and the CC50 at 3 days (in vitro; [3]) was over 50 µM.
`CC(C)Nc1nc2c(c(=O)n1-c1ccc(S(=O)(=O)NC(C)C)cc1)C[C@@H](C)N(C(=O)c1ccc(Cl)c(Cl)c1)C2` [Compound C388] showed an EC50 [1, 2] of 0.62 µM and a CC50 at 3 days (in vitro; [3]) of over 50 µM.
For `COc1ccc(CNc2nc3c(c(=O)n2-c2ccccc2OC)CCN(C(=O)c2ccc(Cl)c(Cl)c2)C3)cc1` [Compound C1, 7-(3,4-dichlorobenzoyl)-3-(2-methoxyphenyl)-2-{[(4-methoxyphenyl)methyl]amino}-5,6,7,8-tetrahydropyrido[3,4-d]pyrimidin-4(3H)-one], the EC50 [1, 4] was 1.47 µM and the CC50 at 3 days (in vitro; [5]) was over 50 µM.
Molecule `CNC(=O)c1ccc(-n2c(N[C@@H](C)c3ccc(S(C)(=O)=O)cc3)nc3c(c2=O)C[C@@H](C)N(C(=O)c2ccc(Cl)c(Cl)c2)C3)cc1` (single isomer, unassigned) [Compound C412b] has an EC50 [1, 2] of over 10 µM and a CC50 at 3 days (in vitro; [3]) of over 50 µM.
For `COc1ccccc1-n1c(NCc2ccc3c(c2)OCO3)nc2c(c1=O)CCN(C(=O)c1ccc(Cl)c(Cl)c1)C2` [Compound C26, 2-{[(2H-1,3-benzodioxol-5-yl)methyl]amino}-7-(3,4-dichlorobenzoyl)-3-(2-methoxyphenyl)-5,6,7,8-tetrahydropyrido[3,4-d]pyrimidin-4(3H)-one], the EC50 [1, 4] was 1.72 µM and the CC50 at 3 days (in vitro; [5]) was over 50 µM.
`CC(C)Nc1nc2c(c(=O)n1-c1ccc(-c3nn[nH]n3)cc1)C[C@@H](C)N(C(=O)c1ccc(Cl)c(Cl)c1)C2` [Compound C453] showed an EC50 [1, 2] of 5.81 µM and a CC50 at 3 days (in vitro; [3]) of over 50 µM.
`Cc1noc(C)c1-c1ccc(-n2c(NC(C)C)nc3c(c2=O)C[C@@H](C)N(C(=O)c2ccc(Cl)c(Cl)c2)C3)cn1` [Compound C264, (6R)-7-(3,4-dichlorobenzoyl)-3-[6-(3,5-dimethyl-1,2-oxazol-4-yl)pyridin-3-yl]-6-methyl-2-[(propan-2-yl)amino]-5,6,7,8-tetrahydropyrido[3,4-d]pyrimidin-4(3H)-one] gave an EC50 [1, 4] of 0.26 µM and a CC50 at 3 days (in vitro; [5]) of over 50 µM.
`CNC(=O)c1ccc(-n2c(NC(C)C)nc3c(c2=O)C[C@@H](C)N(C(=O)c2ccc(Cl)c(C(F)(F)F)c2)C3)nn1` [Compound C684] showed an EC50 [1, 2] of 0.06 µM and a CC50 at 3 days (in vitro; [3]) of over 50 µM.
